# Experiments:
# Assay type in all cases: in vivo
# 129S6/SvEv mice [1] = assay: Forced swim test (FST); immobility time; details: for p, Fisher's PLSD Saline vs. drug, FST Day 2 Immobility Time (sec): drug 1 week before stress; for Behavior: Depressive-like: dose 30 mg/kg
# Experimental: The FST was administered as previously described (47). Briefly, mice were placed into clear plastic buckets 20 cm in diameter and 23 cm deep filled ⅔ of the way with 22° C. water. Mice were videotaped from the side for 6 min and were exposed to the swim test on 2 consecutive days Immobility time was scored by an experimenter blind to the experimental groups.
# 129S6/SvEv mice [2] = assay: Novelty suppressed feeding (NSF)
# Experimental: Testing was performed as previously described (47). Briefly, the NSF testing apparatus consisted of a plastic box (50×50×20 cm). The floor of which was covered with approximately 2 cm of wooden bedding and the arena was brightly lit (approximately 1000 lux). Mice were food restricted for 24 h prior to testing. At the time of testing, a single pellet of food (regular chow) was placed on a white paper platform positioned in the center of the box. Each animal was placed in a corner of the box, and a stopwatch was immediately started. The latency of the mice to begin eating in the arena was recorded Immediately after the latency was recorded, the food pellet was removed from the arena. The mice were then placed back into their home cage. The latency to eat and the amount of food consumed in 5 min were measured (home cage consumption), followed by an assessment of post-restriction weight. A Kaplan-Meier survival analysis was used due to the lack of normal distribution of data. The Mantel-Cox log-rank test was used to evaluate differences between the experimental groups.
# 129S6/SvEv mice [3] = assay: Marble burying (MB); details: 30 mg/kg; drug 5 minutes after stress; FIG. 2K
# Experimental: The MB assay was conducted in a clean cage (10.5 in×5.5 in) containing soft pliable Beta Chip bedding (Northeastern Products Corp, Warrensburg, N.Y.). The cage contained 16 marbles set up in 4 rows of 4 across. Mice were given 30 minutes to explore and bury. At the end of the assay, the percentage of marbles buried was calculated.
# 129S6/SvEv mice [4] = assay: Elevated plus maze (EPM); details: (R,S)-ketamine 30 mg/kg, FENM 10, 20 or 30 mg/kg, vs saline
# Experimental: Testing was performed as previously described (47). Briefly, the maze is a plus-cross-shaped apparatus consisting of four arms, two open and two enclosed by walls, linked by a central platform at a height of 50 cm from the floor. Mice were individually placed in the center of the maze facing an open arm and were allowed to explore the maze for 5 min. The time spent in and the number of entries into the open arms was used as an anxiety index. Videos were scored using ANY-maze behavior tracking software (Stoelting, Wood Dale, Ill.).
# 129S6/SvEv mice [5] = assay: Open field (OF); details: for distance travelled in the OF / time spent in the center of the OF arena: vs saline
# Experimental: The OF assay was administered as previously described (47). Briefly, motor activity was quantified in 4 Plexiglas open field boxes 43×43 cm^2 (MED Associates, Georgia, Vt.). Two sets of 16 pulse-modulated infrared photobeams on opposite walls 2.5-cm apart recorded x-y ambulatory movements. Activity chambers were computer interfaced for data sampling at 100-ms resolution. The computer defined grid lines that dividing center and surround regions, with the center square consisting of four lines 11 cm from the wall.
# [6] = 30 mg/kg, drug 5 minutes after stress, FIG. 2F
# [7] = 5 min prior to CFC, (R,S)-ketamine 30 mg/kg, FENM 20 mg/kg, vs saline
# [8] = Saline vs. (R,S)-ketamine (30 mg/kg), FIG. 8H
# [9] = 5 min after context re-exposure 1, (R,S)-ketamine 30 mg/kg, FENM 20 mg/kg, vs saline
# [10] = 5 minutes after CFC, re-exposure 1 day after training, (R,S)-ketamine 30 mg/kg, FENM 20 mg/kg, vs saline
# [11] = 5 minutes prior to re-exposure 1, (R,S)-ketamine 30 mg/kg, FENM 20 mg/kg, vs saline
# [12] = 5 minutes after CFC, re-exposure 5 days after training
# [13] = 1 week prior to CFC, (R,S)-ketamine 30 mg/kg, FENM 10, 20 or 30 mg/kg
# [14] = 5 min prior to CFC, (R,S)-ketamine 30 mg/kg, FENM 20 mg/kg
# [15] = Fisher's PLSD, drug 5 minutes after stress, FENM 20 mg/kg, (R,S)-ketamine 30 mg/kg
# [16] = Saline vs. (R,S)-ketamine (30 mg/kg), cohort 5 min before re-exposure 1, FIG. 9L
smiles,measurement,setting,value
"CNC1(c2ccccc2Cl)CCCCC1=O (racemic) [(R,S)-ketamine, reference compound]","p, Fisher's PLSD Saline vs. drug, FST Day 2 Immobility Time (sec)","129S6/SvEv mice [1]; 30 mg/kg, after ANOVA, FIG. 1G",0.0007
same,"p, Fisher's PLSD Saline vs. drug, FST Day 2 Immobility Time (sec)","129S6/SvEv mice [1]; 30 mg/kg, after RMANOVA, FIG. 1F",0.0003
same,"p, Fisher's PLSD Saline vs. drug, FST Day 2 Immobility Time Min 1 (s)",129S6/SvEv mice [1]; [6],0.7994
same,"p, Fisher's PLSD Saline vs. drug, FST Day 2 Immobility Time Min 2 (s)",129S6/SvEv mice [1]; [6],0.0125
same,"p, Fisher's PLSD Saline vs. drug, FST Day 2 Immobility Time Min 3 (s)",129S6/SvEv mice [1]; [6],0.8598
same,"p, Fisher's PLSD Saline vs. drug, FST Day 2 Immobility Time Min 4 (s)",129S6/SvEv mice [1]; [6],0.2874
same,"p, Fisher's PLSD Saline vs. drug, FST Day 2 Immobility Time Min 5 (s)",129S6/SvEv mice [1]; [6],0.6526
same,"p, Fisher's PLSD Saline vs. drug, FST Day 2 Immobility Time Min 6 (s)",129S6/SvEv mice [1]; [6],0.1586
same,"p, Fisher's PLSD Saline vs. drug, FST Day 2 Immobility Time (s)","129S6/SvEv mice [1]; 30 mg/kg, drug 5 minutes after stress, after ANOVA, FIG. 2G",0.0466
same,"immobility time, day 2 of the FST",129S6/SvEv mice [1]; [7],significantly decreased immobility time
same,Behavior: Depressive-like,129S6/SvEv mice [1]; Antidepressant (5 min after stress),↓
same,"p, Immobility Time (s), FST Day 2, Saline vs. drug","129S6/SvEv mice [1]; Fisher's PLSD after ANOVA, drug 5 minutes after stress, FENM 20 mg/kg, (R,S)-ketamine 30 mg/kg, FIG. 3K",0.6082
same,"p, Immobility Time (s), FST Day 2, Saline vs. drug","129S6/SvEv mice [1]; Fisher's PLSD after RMANOVA, drug 5 minutes after stress, FENM 20 mg/kg, (R,S)-ketamine 30 mg/kg, FIG. 3J",0.8125
same,Behavior: Depressive-like,129S6/SvEv mice [1]; Prophylactic (5 min before stress),↓
same,Behavior: Depressive-like,129S6/SvEv mice [1]; Prophylactic (7 days before stress),↓
same,"Forced Swim Test Day 1, Immobility Time Min 1 (sec), p (Fisher's LSD)",129S6/SvEv mice [1]; [8],0.0026
same,"Forced Swim Test Day 1, Immobility Time Min 2 (sec), p (Fisher's LSD)",129S6/SvEv mice [1]; [8],0.2638
same,"Forced Swim Test Day 1, Immobility Time Min 3 (sec), p (Fisher's LSD)",129S6/SvEv mice [1]; [8],0.2171
same,"Forced Swim Test Day 1, Immobility Time Min 4 (sec), p (Fisher's LSD)",129S6/SvEv mice [1]; [8],0.6849
same,"Forced Swim Test Day 1, Immobility Time Min 5 (sec), p (Fisher's LSD)",129S6/SvEv mice [1]; [8],0.2114
same,"Forced Swim Test Day 1, Immobility Time Min 6 (sec), p (Fisher's LSD)",129S6/SvEv mice [1]; [8],0.0499
same,"Forced Swim Test Day 2, Immobility Time (sec), p (Fisher's LSD)","129S6/SvEv mice [1]; Saline vs. (R,S)-ketamine (30 mg/kg), after ANOVA, FIG. 8K",0.0046
same,"Forced Swim Test Day 2, Immobility Time (sec), p (Fisher's LSD)","129S6/SvEv mice [1]; Saline vs. (R,S)-ketamine (30 mg/kg), after RMANOVA, FIG. 8J",0.0036
same,latency to feed in the open arena (NSF),"129S6/SvEv mice [2]; 1 week prior to CFC, (R,S)-ketamine 30 mg/kg, FENM 10, 20 or 30 mg/kg, vs saline",did not alter
same,latency to eat in the NSF arena,129S6/SvEv mice [2]; [9],did not alter
same,latency to eat in the homecage (NSF),129S6/SvEv mice [2]; [9],did not alter
same,latency to feed in the open arena (NSF),129S6/SvEv mice [2]; [7],increased the latency to feed
same,latency to feed in the home cage (NSF),129S6/SvEv mice [2]; [10],did not alter
same,latency to feed in the open arena (NSF),129S6/SvEv mice [2]; [10],did not alter
same,latency to feed in the open arena (NSF),"129S6/SvEv mice [2]; 5 minutes after CFC, re-exposure 5 days after training, (R,S)-ketamine 30 mg/kg, FENM 10, 20 or 30 mg/kg, vs saline",did not alter
same,latency to eat in the NSF arena,129S6/SvEv mice [2]; [11],did not alter
same,latency to eat in the homecage (NSF),129S6/SvEv mice [2]; [11],did not alter
same,"Novelty Suppressed Feeding, Latency to feed in OF (sec), p (Fisher's LSD)","129S6/SvEv mice [2]; Saline vs. (R,S)-ketamine (30 mg/kg), FIG. 8P",0.0575
same,"p, Fisher's PLSD Saline vs. drug, MB Marbles Buried (no.)",129S6/SvEv mice [3],0.7292
same,distance travelled in the EPM,129S6/SvEv mice [4]; 1 week prior to CFC,did not alter
same,time spent in the open arms and center of the EPM,129S6/SvEv mice [4]; 1 week prior to CFC,did not alter
same,distance travelled in the EPM,129S6/SvEv mice [4]; [12],did not alter
same,time spent in the open arms and center of the EPM,129S6/SvEv mice [4]; [12],did not alter
same,distance travelled in the OF,129S6/SvEv mice [5]; [13],did not alter
same,time spent in the center of the OF arena,129S6/SvEv mice [5]; [13],did not alter
same,distance travelled in the OF,129S6/SvEv mice [5]; [14],did not alter
same,time spent in the center of the OF arena,129S6/SvEv mice [5]; [14],did not alter
same,"p, Distance Travelled (cm), OF, Saline vs. drug","129S6/SvEv mice [5]; Fisher's PLSD after RMANOVA, drug 5 minutes after stress, FENM 20 mg/kg, (R,S)-ketamine 30 mg/kg, FIG. 3L",0.9319
same,"p, Distance Travelled Min 1 (cm), OF, Saline vs. drug",129S6/SvEv mice [5]; [15],0.0589
same,"p, Distance Travelled Min 2 (cm), OF, Saline vs. drug",129S6/SvEv mice [5]; [15],0.0098
same,"p, Distance Travelled Min 3 (cm), OF, Saline vs. drug",129S6/SvEv mice [5]; [15],0.1586
same,"p, Distance Travelled Min 4 (cm), OF, Saline vs. drug",129S6/SvEv mice [5]; [15],0.6504
same,"p, Distance Travelled Min 5 (cm), OF, Saline vs. drug",129S6/SvEv mice [5]; [15],0.3454
same,"p, Distance Travelled Min 6 (cm), OF, Saline vs. drug",129S6/SvEv mice [5]; [15],0.7410
same,"p, Distance Travelled Min 7 (cm), OF, Saline vs. drug",129S6/SvEv mice [5]; [15],0.1344
same,"p, Distance Travelled Min 8 (cm), OF, Saline vs. drug",129S6/SvEv mice [5]; [15],0.1467
same,"p, Distance Travelled Min 9 (cm), OF, Saline vs. drug",129S6/SvEv mice [5]; [15],0.0061
same,"p, Distance Travelled Min 10 (cm), OF, Saline vs. drug",129S6/SvEv mice [5]; [15],0.4667
same,"Open Field, Distance Travelled Min 1 (cm), p (Fisher's LSD)",129S6/SvEv mice [5]; [16],0.3306
same,"Open Field, Distance Travelled Min 2 (cm), p (Fisher's LSD)",129S6/SvEv mice [5]; [16],0.5200
